Literature values, collected in patent EP1997479A1, “Stabilized amorphous candesartan cilexetil compositions for oral administration” (Helm AG, priority 2007, dated 2008).

solubility in water: low solubility in water
Structure (SMILES): CCOc1nc2cccc(C(=O)OC(C)OC(=O)OC3CCCCC3)c2n1Cc1ccc(-c2ccccc2-c2nnn[nH]2)cc1 (racemic) [Candesartan cilexetil, (±)-1-(Cyclohexyloxycarbonyloxy)ethyl 2-ethoxy-1-[[2'-(1H-tetrazol-5-yl)biphenyl-4-yl]methyl]-1 H-benzimidazole-7-carboxylate]
